This is an account of results in publication PMC9822133, “Design, Synthesis and Antiproliferative Evaluation of Bis-Indole Derivatives with a Phenyl Linker: Focus on Autophagy” (Molecules, 2022).

The test system of one assay is Phospho-ULK Ser555. Description: Western blot, phospho-ULK1 Ser555. The assay is classed as cell-based, human. The following applies: A549, all time periods, mostly after 24 and 48 h. The text has this:
(§1) ULK1/AMPK. ULK1 is a serine/threonine protein kinase. The ULK1 complex controls the formation of the phagophore, the initial autophagosomal precursor membrane structure. Upon induction of autophagy, the ULK1 complex translocates to autophagy initiation sites and regulates the recruitment of a second kinase complex, VPS34. ULK1 can be inhibited by phosphorylation by mammalian target of rapamycin complex 1 (mTORC1) or activated after AMP-activated protein kinase (AMPK) phosphorylation. Under conditions of nutrient deficiency, AMPK is activated, which directly activates ULK1. The kinase is phosphorylated, i.e., activated by an increased AMP/ATP ratio due to cellular and environmental stress. AMPK also inactivates mTORC1 and thus blocks its inhibitory action on autophagy activation.
(§2) A549 cells were seeded on Petri dishes (55 cm^2) at a density of 1 × 10^6 and allowed to culture in the medium. After 24 h, the test substance was added, and the cells were incubated for 24, 48 and 72 h. […] After lysis, the cells were sonicated, and the protein concentration in the samples was quantified using the Pierce® BCA Protein Assay Kit (Thermo Scientific, Rockford, IL, USA) and measured by an automated Cytation™ 3 Cell Imaging Multi-Mode Reader (Biotek) at a wavelength of 570 nm. […]

The subject of the next assay is MCF10A. Description: MTT screening assay, MCF10A non-cancer cells. The assay is classed as cell-based, human. The text has this: (§3) The ability of newly synthesized indole phytoalexins to suppress cell proliferation was screened in vitro on eight cancer cell lines including human colorectal carcinoma (Caco-2 and HCT116), human cervical cancer (HeLa), human breast adenocarcinoma (MCF-7, MDA-MB-231), human alveolar adenocarcinoma (A549) and human leukemic T cell lymphoma (Jurkat), and two non-cancer cell lines (MCF-10A, Cos-7).
(§4) The cell lines used for this study were Caco-2 (human colorectal adenocarcinoma cell line, American Type Culture Collection, Manassas, VA, USA (ATCC)), HCT116 (human colorectal carcinoma cells European Collection of Authenticated Cell Cultures, Salisbury, UK (ECACC)), HeLa (human cervical tumor cells, ECACC), MCF-7 (human breast tumor cells, ECACC), MDA-MB-231 (human breast tumor cells, ATCC), A549 (human lung carcinoma cells, ATCC), BLM (human melanoma lung metastases, a gift from prof. K. Smetana, Institute of Anatomy, Charles University in Prague), Jurkat (human leukemia cell line, ECACC), Cos-7 (immortalized monkey kidney fibroblasts, ATCC) and MCF-10A (human mammary epithelial cells, ATCC). Caco-2, MCF-7, BLM, Cos-7 and A549 cells were cultured in Dulbecco’s Modified Eagle’s Medium (DMEM) with high glucose and sodium pyruvate (GE Healthcare, Piscataway, NJ, USA); HCT116 lines, HeLa, MDA-MB-231 and Jurkat were cultured in RPMI-1640 medium; and MCF10A cells were cultured in high glucose DMEM/F12 (Dulbecco’s Modified Eagle’s Medium F12). The media were enriched with 10% fetal bovine serum (FBS) and a 1% solution of a mixture of antibiotics and antimycotics 1× HyClone™ (GE Healthcare, Chicago, IL, USA). DMEM/F12 medium was supplemented with epidermal growth factor (EGF) (20 ng/mL final), hydrocortisone (0.5 μg/mL final) and insulin (10 μg/mL final) (Sigma-Aldrich Chemie, Steinheim, Germany). The cells were placed in an incubator at 37 °C with humidified air containing 5% CO2.
The MTT assay is a colorimetric method used to quantify the metabolic activity of cells. MTT (3-(4,5-di-methylthiazol-2-yl)2,5-diphenyltetrazolium bromide) (Sigma-Aldrich Chemie, Steinheim, Germany) is reduced by oxidoreductases in the cytosol of cells to light-absorbing formazan, the presence of which can be measured spectrophotometrically and determines the half-maximal inhibitory concentration (IC50). A549 cells were seeded in […] culture plates at a density of 5 × 10^3 per well. After 24 h of cultivation, the tested substance 49 was added in concentrations of 10, 50 and 100 µM.
We also incubated the cells with chloroquine at concentrations of 5–20 µM, which was added 1 h before the addition of the test substance, and cisplatin at concentrations of 3–10 µM. Cisplatin was added 24 h after the addition of 49. After 72 h of incubation, 10 µL of MTT (5 mg/mL) was added to each well. After 4 h, formazan crystals formed in the wells, which were dissolved in 100 uL of 10% SDS (sodium dodecyl sulfate). After 24 h, the absorbance was measured at a wavelength of 540 nm using an automated Cytation™ 3 Cell Imaging Multi-Mode Reader (Biotek, Winooski, VT, USA). These experiments were performed in three independent replicates.

The next assay has as its system HCT116. Briefly: MTT screening assay, HCT116. To be noted: Homo sapiens, HCT-116, 72 h incubation. The assay is classed as cell-based.
Text: as §3, §4
(§5) The MTT assay is a colorimetric method used to quantify the metabolic activity of cells. MTT (3-(4,5-di-methylthiazol-2-yl)2,5-diphenyltetrazolium bromide) (Sigma-Aldrich Chemie, Steinheim, Germany) is reduced by oxidoreductases in the cytosol of cells to light-absorbing formazan, the presence of which can be measured spectrophotometrically and determines the half-maximal inhibitory concentration (IC50). A549 cells were seeded in […] culture plates at a density of 5 × 10^3 per well. […]
(§6) We also incubated the cells with chloroquine at concentrations of 5–20 µM, which was added 1 h before the addition of the test substance, and cisplatin at concentrations of 3–10 µM. […] After 24 h, the absorbance was measured at a wavelength of 540 nm using an automated Cytation™ 3 Cell Imaging Multi-Mode Reader (Biotek, Winooski, VT, USA). […]

For the next assay, the system named is Phospho-AMPKα. Description: Western blot, phospho-AMPK. It is filed as cell-based, human. To be noted: A549, 24, 48, 72 h.
Text: as §1, §2

The next assay has as its system Jurkat. Briefly: MTT screening assay, Jurkat. The assay is classed as cell-based. The following applies: Homo sapiens, 72 h incubation.
Text: as §3, §4, §5, §6

With `CC(C)(C)OC(=O)n1cc(CNC(=O)Nc2ccc(NC(=O)NCc3cn(C(=O)OC(C)(C)C)c4ccccc34)cc2)c2ccccc21` [Compound 49, N,N′-(1,4-phenylene)bis{N′-[1-(tert-butoxycarbonyl)indol-3-yl]methyl (urea)}], in the assay on Phospho-ULK Ser555, the “phosphorylated form of ULK1 at Ser555” value is listed as “significant upregulation”. Besides, the IC50 in the assay with MCF10A (Homo sapiens, MCF-10A, 72 h incubation, MTT, non-cancer cells) came out at 55.1 ± 4.1 µM; in the assay on HCT116 it was 8.8 ± 0.6 µM; in the assay with Jurkat, 98.8 ± 1.7 µM. Further, the “Selectivity index—A549 cells vs. non-cancer cells (MCF10A)” value in the assay on MCF10A (IC50 MCF10A / IC50 A549) is given as 6.3. The “phosphorylated form of AMPK” value in the assay on Phospho-AMPKα was “significant increase”.
